# Results reported in patent US9409884B2 (Rigel Pharmaceuticals, Inc., priority 2012, dated 2016).
# Biological target: AMPK
# Assay: AMPK activation, enzyme-linked immunosorbent assay
# Assay type: biochemical
# Method in brief: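 Read-out: ELISA, used to detect compound-driven activation of AMPK.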
Structure (SMILES),"EC50 (Table 13, compounds of Table 6) [nM]","EC50 (Table 14, compounds of Table 7) [nM]"
"CS(=O)(=O)c1ccc(CN2CCN(C(=O)c3ccc4oc(C(=O)NC5CCN(Cc6ccc(OC(F)(F)F)c(F)c6)CC5)cc4c3)CC2)cc1 [Compound 6-138, N-(1-(3-fluoro-4-(trifluoromethoxy)benzyl)piperidin-4-yl)-5-(4-(4-(methylsulfonyl)benzyl)piperazine-1-carbonyl) benzofuran-2-carboxamide]",< 100,–
"O=C(NC1CCN(Cc2ccc(OC(F)(F)F)c(F)c2)CC1)c1cc2cc(C(=O)N3CCN(c4cccc(C(F)(F)F)c4)CC3)ccc2o1 [Compound 6-139, N-(1-(3-fluoro-4-(trifluoromethoxy)benzyl)piperidin-4-yl)-5-(4-(3-(trifluoromethyl)phenyl)piperazine-1-carbonyl) benzofuran-2-carboxamide]",< 100,–
"O=C(NC1CCN(Cc2ccc(OC(F)(F)F)cc2)CC1)c1cc2cc(C(=O)N3CCN(c4cccc(C(F)(F)F)c4)CC3)ccc2o1 [Compound 6-140, N-(1-(4-(trifluoromethoxy)benzyl)piperidin-4-yl)-5-(4-(3-(trifluoromethyl)phenyl)piperazine-1-carbonyl) benzofuran-2-carboxamide]",< 100,–
"COc1ccc(CN2CCC(NC(=O)c3cc4cc(C(=O)N5CCN(Cc6cccc(S(C)(=O)=O)c6)CC5)ccc4o3)CC2)cc1F [Compound 6-141, N-(1-(3-fluoro-4-methoxybenzyl)piperidin-4-yl)-5-(4-(3-(methylsulfonyl)benzyl)piperazine-1-carbonyl) benzofuran-2-carboxamide]",< 100,–
"COc1ccc(CN2CCC(NC(=O)c3cc4cc(C(=O)N5CCN(Cc6cccc(S(C)(=O)=O)c6)CC5)ccc4n3C)CC2)cc1F [Compound 6-142, N-(1-(3-fluoro-4-methoxybenzyl)piperidin-4-yl)-1-methyl-5-(4-(3-(methylsulfonyl)benzyl)piperazine-1-carbonyl)-1H-indole-2-carboxamide]",< 100,–
"COc1ccc(CN2CCC(NC(=O)c3cc4cc(C(=O)N5CCN(Cc6ccc(Br)c(S(C)(=O)=O)c6)CC5)ccc4o3)CC2)cc1F [Compound 6-143, 5-(4-(4-bromo-3-(methylsulfonyl)benzyl)piperazine-1-carbonyl)-N-(1-(3-fluoro-4-methoxybenzyl)piperidin-4-yl)benzofuran-2-carboxamide]",< 100,–
"CS(=O)(=O)c1ccc(CN2CCN(C(=O)c3ccc4oc(C(=O)NC5CCN(Cc6ccc(C(F)(F)F)cc6)CC5)cc4c3)CC2)cc1 [Compound 6-144, 5-(4-(4-(methylsulfonyl)benzyl)piperazine-1-carbonyl)-N-(1-(4-(trifluoromethyl)benzyl)piperidin-4-yl)benzofuran-2-carboxamide]",< 100,–
"CS(=O)(=O)c1ccc(CN2CCN(C(=O)c3ccc4oc(C(=O)NC5CCN(Cc6ccc(C#N)c(F)c6)CC5)cc4c3)CC2)cc1 [Compound 6-145, N-(1-(4-cyano-3-fluorobenzyl)piperidin-4-yl)-5-(4-(4-(methylsulfonyl)benzyl)piperazine-1-carbonyl) benzofuran-2-carboxamide]",< 100,–
"CS(=O)(=O)c1ccc(CN2CCN(C(=O)c3ccc4oc(C(=O)NC5CCN(Cc6cccc(OC(F)(F)F)c6)CC5)cc4c3)CC2)cc1 [Compound 6-146, 5-(4-(4-(methylsulfonyl)benzyl)piperazine-1-carbonyl)-N-(1-(3-(trifluoromethoxy)benzyl)piperidin-4-yl)benzofuran-2-carboxamide]",< 100,–
"CS(=O)(=O)c1ccc(CN2CCN(C(=O)c3ccc4oc(C(=O)NC5CCN(Cc6cccc(C(F)(F)F)c6)CC5)cc4c3)CC2)cc1 [Compound 6-147, 5-(4-(4-(methylsulfonyl)benzyl)piperazine-1-carbonyl)-N-(1-(3-(trifluoromethyl)benzyl)piperidin-4-yl)benzofuran-2-carboxamide]",< 100,–
"CS(=O)(=O)c1ccc(CN2CCN(C(=O)c3ccc4oc(C(=O)NC5CCN(Cc6ccc(-n7cccn7)cc6)CC5)cc4c3)CC2)cc1 [Compound 6-148, N-(1-(4-(1H-pyrazol-1-yl)benzyl)piperidin-4-yl)-5-(4-(4-(methylsulfonyl)benzyl)piperazine-1-carbonyl) benzofuran-2-carboxamide]",< 100,–
"CS(=O)(=O)c1cccc(CN2CCN(C(=O)c3ccc4oc(C(=O)NC5CCN(Cc6ccc(C(F)(F)F)cc6)CC5)cc4c3)CC2)c1 [Compound 6-149, 5-(4-(3-(methylsulfonyl)benzyl)piperazine-1-carbonyl)-N-(1-(4-(trifluoromethyl)benzyl)piperidin-4-yl)benzofuran-2-carboxamide]",< 100,–
"CS(=O)(=O)c1cccc(CN2CCN(C(=O)c3ccc4oc(C(=O)NC5CCN(Cc6ccc(C#N)c(F)c6)CC5)cc4c3)CC2)c1 [Compound 6-150, N-(1-(4-cyano-3-fluorobenzyl)piperidin-4-yl)-5-(4-(3-(methylsulfonyl)benzyl)piperazine-1-carbonyl) benzofuran-2-carboxamide]",< 100,–
"CS(=O)(=O)c1cccc(CN2CCN(C(=O)c3ccc4oc(C(=O)NC5CCN(Cc6cccc(OC(F)(F)F)c6)CC5)cc4c3)CC2)c1 [Compound 6-151, 5-(4-(3-(methylsulfonyl)benzyl)piperazine-1-carbonyl)-N-(1-(3-(trifluoromethoxy)benzyl)piperidin-4-yl)benzofuran-2-carboxamide]",< 100,–
"CS(=O)(=O)c1cccc(CN2CCN(C(=O)c3ccc4oc(C(=O)NC5CCN(Cc6ccc(-n7cccn7)cc6)CC5)cc4c3)CC2)c1 [Compound 6-153, N-(1-(4-(1H-pyrazol-1-yl)benzyl)piperidin-4-yl)-5-(4-(3-(methylsulfonyl)benzyl)piperazine-1-carbonyl) benzofuran-2-carboxamide]",< 100,–
"COc1ccc(CN2CCC(NC(=O)c3cc4cc(C(=O)N5CCN(Cc6ccc(S(C)(=O)=O)cc6)CC5)ccc4o3)CC2)cc1F [Compound 6-154, N-(1-(3-fluoro-4-methoxybenzyl)piperidin-4-yl)-5-(4-(4-(methylsulfonyl)benzyl)piperazine-1-carbonyl) benzofuran-2-carboxamide]",< 100,–
"CS(=O)(=O)c1ccc(OC2CCN(C(=O)c3ccc4oc(C(=O)N[C@@H]5CCN(Cc6ccc(OC(F)(F)F)cc6)C[C@H]5F)cc4c3)CC2)cc1 [Compound 6-155, N-((3,4-trans)-3-fluoro-1-(4-(trifluoromethoxy)benzyl)piperidin-4-yl)-5-(4-(4-(methylsulfonyl)phenoxy)piperidine-1-carbonyl) benzofuran-2-carboxamide]",< 100,–
"CS(=O)(=O)c1ccc(CN2CCN(C(=O)c3ccc4oc(C(=O)NC5CCN(Cc6ccc(OC(F)(F)C(F)F)cc6)CC5)cc4c3)CC2)cc1 [Compound 6-156, 5-(4-(4-(methylsulfonyl)benzyl)piperazine-1-carbonyl)-N-(1-(4-(1,1,2,2-tetrafluoroethoxy)benzyl)piperidin-4-yl)benzofuran-2-carboxamide]",< 100,–
"CS(=O)(=O)c1ccc(CN2CCN(C(=O)c3ccc4oc(C(=O)NC5CCN(Cc6cccc(OC(F)(F)C(F)F)c6)CC5)cc4c3)CC2)cc1 [Compound 6-157, 5-(4-(4-(methylsulfonyl)benzyl)piperazine-1-carbonyl)-N-(1-(3-(1,1,2,2-tetrafluoroethoxy)benzyl)piperidin-4-yl)benzofuran-2-carboxamide]",< 100,–
"CS(=O)(=O)c1ccc(CN2CCN(C(=O)c3ccc4oc(C(=O)NC5CCN(Cc6ccc(OC(F)(F)F)c(Cl)c6)CC5)cc4c3)CC2)cc1 [Compound 6-158, N-(1-(3-chloro-4-(trifluoromethoxy)benzyl)piperidin-4-yl)-5-(4-(4-(methylsulfonyl)benzyl)piperazine-1-carbonyl) benzofuran-2-carboxamide]",100 to 1000,–
"CS(=O)(=O)c1ccc(CN2CCN(C(=O)c3ccc4oc(C(=O)NC5CCN(Cc6ccc(S(=O)(=O)N7CCCC7)cc6)CC5)cc4c3)CC2)cc1 [Compound 6-159, 5-(4-(4-(methylsulfonyl)benzyl)piperazine-1-carbonyl)-N-(1-(4-(pyrrolidin-1-ylsulfonyl)benzyl)piperidin-4-yl)benzofuran-2-carboxamide]",1000 to 10000,–
"COc1ccc(CN2CCC(NC(=O)c3cc4cc(C(=O)N5CCN(Cc6ccc(S(=O)(=O)N7CCCC7)cc6)CC5)ccc4o3)CC2)cc1F [Compound 6-160, N-(1-(3-fluoro-4-methoxybenzyl)piperidin-4-yl)-5-(4-(4-(pyrrolidin-1-ylsulfonyl)benzyl)piperazine-1-carbonyl)benzofuran-2 - carboxamide]",< 100,–
"CCNS(=O)(=O)c1ccc(CN2CCN(C(=O)c3ccc4oc(C(=O)NC5CCN(Cc6ccc(OC)c(F)c6)CC5)cc4c3)CC2)cc1 [Compound 6-161, 5-(4-(4-(N-ethylsulfamoyl)benzyl)piperazine-1-carbonyl)-N-(1-(3-fluoro-4-methoxybenzyl)piperidin-4-yl)benzofuran-2-carboxamide]",< 100,–
COc1ccc(CN2CCC(NC(=O)c3cc4cc(C(=O)N5CCN(Cc6ccc(S(=O)(=O)N(C)C)cc6)CC5)ccc4o3)CC2)cc1F [Compound 6-162],< 100,–
"COc1ccc(CN2CCC(NC(=O)c3cc4cc(C(=O)N5CCN(Cc6ccc(S(=O)(=O)N7CCOCC7)cc6)CC5)ccc4o3)CC2)cc1F [Compound 6-163, N-(1-(3-fluoro-4-methoxybenzyl)piperidin-4-yl)-5-(4-(4-(morpholinosulfonyl)benzyl)piperazine-1-arbonyl) benzofuran-2-carboxamide]",< 100,–
"COc1ccc(CN2CCC(NC(=O)c3cc4cc(C(=O)N5CCC(Oc6ccc(S(C)(=O)=O)cc6)CC5)ccc4o3)CC2)cc1 [Compound 6-164, N-(1-(4-methoxybenzyl)piperidin-4-yl)-5-(4-(4-(methylsulfonyl)phenoxy)piperidine-1-carbonyl) benzofuran-2-carboxamide]",< 100,–
"CS(=O)(=O)c1ccc(OC2CCN(C(=O)c3ccc(C(=O)Nc4ccc(Oc5ccc(S(F)(F)(F)(F)F)cc5)nc4)cn3)CC2)cc1 [Compound 7-1, 6-(4-(4-(methylsulfonyl)phenoxy)piperidine-1-carbonyl)-N-(6-(4-(pentafluorosulfanyl)phenoxy)pyridin-3-yl)nicotinamide]",–,1000 to 10000
